Patent publication US20180338980A1, “AROMATIC SULFONAMIDE DERIVATIVES” (BAYER PHARMA AKTIENGESELLSCHAFT, priority 2015, published 2018)

Target: T1, P2X4 (Homo sapiens, UniProt Q99571)
T1 sequence (Q99571 1-388): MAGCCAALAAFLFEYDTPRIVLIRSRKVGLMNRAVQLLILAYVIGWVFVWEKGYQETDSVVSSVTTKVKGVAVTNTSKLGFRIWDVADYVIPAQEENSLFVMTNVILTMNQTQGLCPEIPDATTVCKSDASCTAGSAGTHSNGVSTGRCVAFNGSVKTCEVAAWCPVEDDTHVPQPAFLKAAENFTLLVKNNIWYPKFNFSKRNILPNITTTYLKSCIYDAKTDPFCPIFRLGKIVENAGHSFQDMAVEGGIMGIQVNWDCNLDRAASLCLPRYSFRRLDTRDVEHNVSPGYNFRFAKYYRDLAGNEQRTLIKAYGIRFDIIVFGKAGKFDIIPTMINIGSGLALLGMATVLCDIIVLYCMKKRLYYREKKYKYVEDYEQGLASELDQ
Assay: Assay B: human P2X4 receptor cell line, mitochondrial photina luminescence (agonist Bz-ATP at EC50)
Assay type: cell-based
Set-up: host or cells: HEK 293 (recombinant, constitutively expressing; with mitochondrial photina in Assay B)
Settings: HEK human P2X4 cell line, photina luminescence, agonist Bz-ATP at EC50, average; for Emax: read-out: human P2X4 Assay B avg Efficacy
Experimental: The identification of agonists and antagonists of the P2X4 receptor from humans and […] also the quantification of the activity of the compounds of the invention was performed by use of recombinant cell lines. […] The test cell lines constitutively express the mouse or human P2X4 receptors. Stimulation of the receptors with an agonist leads to a conformational change of P2X4 and influx of extracellular calcium ions through the ion channel. The cytoplasmatic calcium transient is detected via the calcium sensitive dye Fluo8 for the mouse P2×4 cell line or in case of the human P2×4 cell line a stably expressed calcium-sensitive photoprotein, mitochondrial photina, which, after reconstitution with the cofactor coelenterazine, emits light in dependence of calcium binding [Bovolenta S, Foti M, Lohmer S, Corazza S., J Biomol Screen. […] The strength of Fluo8 fluorescence signal or photina luminescence signal corresponds to the level of receptor activation. An inhibitor would decrease the signal depending on its potency and concentration.
The resulting light signal is measured immediately in the luminometer.

IC50 [nM]	Emax [%]	SMILES
3380	72	CN1CCN=C1c1cccc(Oc2ccc(NC(=O)Cc3ccccc3Cl)cc2S(N)(=O)=O)c1 [Example 041, 2-(2-Chlorophenyl)-N-{4-[3-(1-methyl-4,5-dihydro-1H-imidazol-2-yl)phenoxy]-3-sulfamoylphenyl}acetamide]
2630	69	NS(=O)(=O)c1cc(NC(=O)Cc2ccccc2Cl)ccc1Oc1ccc(N2CCOCC2)cc1 [Example 044, 2-(2-Chlorophenyl)-N-{4-[4-(morpholin-4-yl)phenoxy]-3-sulfamoylphenyl}acetamide]
176	71	Cc1ccc(C#N)cc1Oc1ccc(NC(=O)Cc2ccccc2Cl)cc1S(N)(=O)=O [Example 045, 2-(2-Chlorophenyl)-N-[4-(5-cyano-2-methylphenoxy)-3-sulfamoylphenyl]acetamide]
841	75	Cc1c(C#N)cccc1Oc1ccc(NC(=O)Cc2ccccc2Cl)cc1S(N)(=O)=O [Example 046, 2-(2-Chlorophenyl)-N-[4-(3-cyano-2-methylphenoxy)-3-sulfamoylphenyl]acetamide]
11600	73	N#Cc1ncc(Cl)cc1Oc1ccc(NC(=O)Cc2ccccc2Cl)cc1S(N)(=O)=O [Example 048, N-{4-[(5-Chloro-2-cyanopyridin-3-yl)oxy]-3-sulfamoylphenyl}-2-(2-chlorophenyl)acetamide]
773	92	NS(=O)(=O)c1cc(NC(=O)Cc2ccccc2Cl)ccc1Oc1cccc(N2CCCCC2)c1 [Example 049, 2-(2-Chlorophenyl)-N-{4-[3-(piperidin-1-yl)phenoxy]-3-sulfamoylphenyl}acetamide]
1160	71	N#CC1(COc2ccc(NC(=O)Cc3ccccc3Cl)cc2S(N)(=O)=O)CCOCC1 [Example 055, 2-(2-Chlorophenyl)-N-{4-[(4-cyanotetrahydro-2H-pyran-4-yl)methoxy]-3-sulfamoylphenyl}acetamide]
> 50000	15	NS(=O)(=O)c1cc(NC(=O)Cc2ccccc2Cl)ccc1Oc1cnc(C(F)(F)F)nc1 [Example 056, 2-(2-Chlorophenyl)-N-(3-sulfamoyl-4-{[2-(trifluoromethyl)pyrimidin-5-yl]oxy}phenyl)acetamide]
1590	65	CC(C)c1ncc(Oc2ccc(NC(=O)Cc3ccccc3Cl)cc2S(N)(=O)=O)cn1 [Example 057, 2-(2-Chlorophenyl)-N-{4-[(2-isopropylpyrimidin-5-yl)oxy]-3-sulfamoylphenyl}acetamide]
3180	73	Cc1nc(C2CC2)ncc1Oc1ccc(NC(=O)Cc2ccccc2Cl)cc1S(N)(=O)=O [Example 058, 2-(2-Chlorophenyl)-N-{4-[(2-cyclopropyl-4-methylpyrimidin-5-yl)oxy]-3-sulfamoylphenyl}acetamide]
–	34	NS(=O)(=O)c1cc(NC(=O)Cc2ccccc2Cl)ccc1Oc1ccc(Br)cc1 [Example 060, N-[4-(4-Bromophenoxy)-3-sulfamoylphenyl]-2-(2-chlorophenyl)acetamide]
241	72	NS(=O)(=O)c1cc(NC(=O)Cc2ccccc2Cl)ccc1Oc1cccc(C(=O)N2CCCCC2)c1 [Example 067, 2-(2-chlorophenyl)-N-{4-[3-(piperidin-1-ylcarbonyl)phenoxy]-3-sulfamoylphenyl}acetamide]
2680	71	N#Cc1cc(F)cc(Oc2ccc(NC(=O)Cc3ccccc3Cl)cc2S(N)(=O)=O)c1 [Example 069, 2-(2-chlorophenyl)-N-[4-(3-cyano-5-fluorophenoxy)-3-sulfamoylphenyl]acetamide]
1100	70	COc1ccccc1Oc1ccc(NC(=O)Cc2ccccc2)cc1S(N)(=O)=O [Example 070, N-[4-(2-Methoxyphenoxy)-3-sulfamoylphenyl]-2-phenylacetamide]
2090	73	COc1ccccc1Oc1ccc(NC(=O)Cc2ccc(C(F)(F)F)cc2)cc1S(N)(=O)=O [Example 071, N-[4-(2-Methoxyphenoxy)-3-sulfamoylphenyl]-2-[4-(trifluoromethyl)phenyl]acetamide]
2960	63	NS(=O)(=O)c1cc(NC(=O)Cc2ccc(C(F)(F)F)cc2)ccc1Oc1ccccc1OC(F)(F)F [Example 072, N-{3-Sulfamoyl-4-[2-(trifluoromethoxy)phenoxy]phenyl}-2-[4-(trifluoromethyl)phenyl]acetamide]

IC50 [nM]	Emax [%]	SMILES
3370	65	NS(=O)(=O)c1cc(NC(=O)Cc2ccc(C(F)(F)F)cc2)ccc1Oc1ccccc1Cl [Example 073, N-[4-(2-Chlorophenoxy)-3-sulfamoylphenyl]-2-[4-(trifluoromethyl)phenyl]acetamide]
609	52	NS(=O)(=O)c1cc(NC(=O)Cc2ccccc2)ccc1Oc1ccccc1OC(F)(F)F [Example 074, 2-Phenyl-N-{3-sulfamoyl-4-[2-(trifluoromethoxy)phenoxy]phenyl}acetamide]
2230	77	NS(=O)(=O)c1cc(NC(=O)Cc2ccccc2Cl)ccc1Oc1ccc[nH]c1=O [Example 075, 2-(2-Chlorophenyl)-N-{4-[(2-oxo-1,2-dihydropyridin-3-yl)oxy]-3-sulfamoylphenyl}acetamide]
–	74	NS(=O)(=O)c1cc(NC(=O)Cc2ccccc2)ccc1Oc1ccccc1Cl [Example 076, N-[4-(2-Chlorophenoxy)-3-sulfamoylphenyl]-2-phenylacetamide]
706	86	NS(=O)(=O)c1cc(NC(=O)Cc2ccccc2)ccc1Oc1cncc(Cl)c1 [Example 078, N-{4-[(5-Chloropyridin-3-yl)oxy]-3-sulfamoylphenyl}-2-phenylacetamide]
213	57	NS(=O)(=O)c1cc(NC(=O)Cc2cccc(F)c2)ccc1Oc1cccc(Cl)c1 [Example 084, N-[4-(3-Chlorophenoxy)-3-sulfamoylphenyl]-2-(3-fluorophenyl)acetamide]
196	76	CC(C)c1ccccc1CC(=O)Nc1ccc(Oc2cccc(Cl)c2)c(S(N)(=O)=O)c1 [Example 087, N-[4-(3-Chlorophenoxy)-3-sulfamoylphenyl]-2-(2-isopropylphenyl)acetamide]
190	75	CCOc1ccccc1CC(=O)Nc1ccc(Oc2cccc(Cl)c2)c(S(N)(=O)=O)c1 [Example 088, N-[4-(3-Chlorophenoxy)-3-sulfamoylphenyl]-2-(2-ethoxyphenyl)acetamide]
442	71	NS(=O)(=O)c1cc(NC(=O)Cc2ccccc2SC(F)(F)F)ccc1Oc1cccc(Cl)c1 [Example 090, N-[4-(3-Chlorophenoxy)-3-sulfamoylphenyl]-2-{2-[(trifluoromethyl)sulfanyl]phenyl}acetamide]
3440	57	Cc1ccncc1CC(=O)Nc1ccc(Oc2cccc(Cl)c2)c(S(N)(=O)=O)c1 [Example 092, N-[4-(3-Chlorophenoxy)-3-sulfamoylphenyl]-2-(4-methylpyridin-3-yl)acetamide]
216	68	NS(=O)(=O)c1cc(NC(=O)Cc2cccnc2Cl)ccc1Oc1cccc(Cl)c1 [Example 093, N-[4-(3-Chlorophenoxy)-3-sulfamoylphenyl]-2-(2-chloropyridin-3-yl)acetamide]
200	74	NS(=O)(=O)c1cc(NC(=O)C(F)(F)c2ccccc2Cl)ccc1Oc1cccc(Cl)c1 [Example 094, N-[4-(3-Chlorophenoxy)-3-sulfamoylphenyl]-2-(2-chlorophenyl)-2,2-difluoroacetamide]
203	75	NS(=O)(=O)c1cc(NC(=O)Cc2ccccc2OC(F)(F)F)ccc1Oc1cccc(Cl)c1 [Example 105, N-[4-(3-Chlorophenoxy)-3-sulfamoylphenyl]-2-[2-(trifluoromethoxy)phenyl]acetamide]
524	42	NS(=O)(=O)c1cc(NC(=O)C(F)(F)c2ccccc2)ccc1Oc1cccc(Cl)c1 [Example 106, N-[4-(3-Chlorophenoxy)-3-sulfamoylphenyl]-2,2-difluoro-2-phenylacetamide]
175	60	NS(=O)(=O)c1cc(NC(=O)Cc2c(Cl)cccc2C(F)(F)F)ccc1Oc1cccc(Cl)c1 [Example 108, N-[4-(3-Chlorophenoxy)-3-sulfamoylphenyl]-2-[2-chloro-6-(trifluoromethyl)phenyl]acetamide]
825	56	NS(=O)(=O)c1cc(NC(=O)Cc2cc(C(F)(F)F)ccc2Cl)ccc1Oc1cccc(Cl)c1 [Example 109, N-[4-(3-Chlorophenoxy)-3-sulfamoylphenyl]-2-[2-chloro-5-(trifluoromethyl)phenyl]acetamide]
